From patent publication US8236808B2, “Pyrazine derivatives as ENAC blockers” (Novartis AG, priority 2008, dated 2012)
Counter-ions that a name gives are not always drawn.

Target: T1, epithelial sodium channel (ENaC) (Homo sapiens, UniProt P37088+P51168+P51170)
T1 construct: host or cells: primary human bronchial epithelial cells (HBECs), differentiated at the air-liquid interface
T1 sequence (P37088 1-669): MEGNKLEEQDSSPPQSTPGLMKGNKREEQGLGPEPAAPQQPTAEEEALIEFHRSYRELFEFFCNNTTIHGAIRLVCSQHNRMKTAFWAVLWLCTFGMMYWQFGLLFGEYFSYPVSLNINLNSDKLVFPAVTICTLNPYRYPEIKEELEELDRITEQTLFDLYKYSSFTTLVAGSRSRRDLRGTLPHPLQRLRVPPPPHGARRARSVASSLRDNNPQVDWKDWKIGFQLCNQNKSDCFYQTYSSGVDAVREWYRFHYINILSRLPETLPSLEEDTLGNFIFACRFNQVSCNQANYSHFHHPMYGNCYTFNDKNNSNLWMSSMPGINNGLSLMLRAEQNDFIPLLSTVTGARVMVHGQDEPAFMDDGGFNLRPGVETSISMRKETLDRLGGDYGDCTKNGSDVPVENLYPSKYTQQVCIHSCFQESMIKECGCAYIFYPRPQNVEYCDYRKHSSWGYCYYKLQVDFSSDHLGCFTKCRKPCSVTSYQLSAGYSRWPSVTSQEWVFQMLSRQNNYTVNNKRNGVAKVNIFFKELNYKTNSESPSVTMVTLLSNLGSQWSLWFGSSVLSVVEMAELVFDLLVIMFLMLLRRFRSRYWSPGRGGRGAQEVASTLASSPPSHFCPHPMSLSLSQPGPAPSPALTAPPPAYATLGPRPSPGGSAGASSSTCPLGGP
T1 sequence (P51168 1-640): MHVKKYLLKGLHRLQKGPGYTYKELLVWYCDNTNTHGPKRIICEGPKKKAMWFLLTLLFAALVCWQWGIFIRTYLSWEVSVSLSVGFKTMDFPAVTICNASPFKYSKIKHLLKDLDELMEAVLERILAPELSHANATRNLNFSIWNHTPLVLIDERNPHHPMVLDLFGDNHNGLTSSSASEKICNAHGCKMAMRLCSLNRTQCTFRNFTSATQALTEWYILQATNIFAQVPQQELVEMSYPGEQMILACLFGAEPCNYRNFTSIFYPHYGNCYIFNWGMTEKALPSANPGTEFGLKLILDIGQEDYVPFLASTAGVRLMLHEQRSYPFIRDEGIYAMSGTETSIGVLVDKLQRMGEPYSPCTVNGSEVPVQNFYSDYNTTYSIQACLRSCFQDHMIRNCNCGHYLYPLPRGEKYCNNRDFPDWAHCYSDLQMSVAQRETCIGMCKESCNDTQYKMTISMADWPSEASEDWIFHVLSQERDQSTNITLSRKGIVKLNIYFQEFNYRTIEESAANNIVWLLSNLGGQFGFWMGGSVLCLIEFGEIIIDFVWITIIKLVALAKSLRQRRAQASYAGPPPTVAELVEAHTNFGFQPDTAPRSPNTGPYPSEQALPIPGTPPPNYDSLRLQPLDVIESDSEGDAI
T1 sequence (P51170 1-649): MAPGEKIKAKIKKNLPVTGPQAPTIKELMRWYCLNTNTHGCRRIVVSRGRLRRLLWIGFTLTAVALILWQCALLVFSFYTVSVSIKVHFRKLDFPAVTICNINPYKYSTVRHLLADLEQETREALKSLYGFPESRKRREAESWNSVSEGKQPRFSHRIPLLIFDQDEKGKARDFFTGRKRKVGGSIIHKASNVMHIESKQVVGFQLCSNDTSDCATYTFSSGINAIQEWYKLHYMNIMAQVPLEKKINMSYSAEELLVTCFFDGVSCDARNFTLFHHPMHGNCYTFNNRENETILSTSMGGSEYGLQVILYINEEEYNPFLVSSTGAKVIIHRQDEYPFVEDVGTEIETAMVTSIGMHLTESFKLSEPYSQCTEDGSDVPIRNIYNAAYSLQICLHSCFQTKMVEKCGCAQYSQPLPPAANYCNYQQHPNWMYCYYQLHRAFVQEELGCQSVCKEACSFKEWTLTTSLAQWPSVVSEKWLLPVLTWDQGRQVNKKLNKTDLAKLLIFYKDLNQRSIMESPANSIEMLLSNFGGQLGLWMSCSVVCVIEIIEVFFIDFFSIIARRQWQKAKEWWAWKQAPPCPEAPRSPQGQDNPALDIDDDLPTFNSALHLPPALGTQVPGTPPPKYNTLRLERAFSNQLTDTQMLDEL
Test: Short circuit current (ISC) measurements in human bronchial epithelial cells, inhibition of amiloride-sensitive ISC
Format: cell-based
Conditions: inhibition of the amiloride-sensitive ISC; HBECs cultured at air-liquid interface, Ussing chamber, compound added to apical chamber
Protocol: Compounds of formula (I), hereinafter referred to alternatively as “agents of the invention”, are useful as pharmaceuticals. In particular, the compounds have good ENaC blocker activity and may be tested in the following assays.
Human Bronchial Epithelial cells (HBECs) (Cambrex) were cultured under air-liquid interface conditions to provide a well differentiated mucociliary phenotype.
HBECs were cultured using a modification of the method described by Gray and colleagues (Gray et al., 1996). Cells were seeded in plastic T-162 flasks and were grown in bronchial epithelial cell growth medium (BEGM; Cambrex) supplemented with bovine pituitary extract (52 μg/mL), hydrocortisone (0.5 μg/mL), human recombinant epidermal growth factor (0.5 ng/mL), epinephrine (0.5 μg/mL), transferrin (10 μg/mL), insulin (5 μg/mL), retinoic acid (0.1 μg/mL), triiodothyronine ([…]), gentamycin (50 μg/mL) and amphotericin B (50 ng/mL). Medium was changed every 48 hours until cells were 90% confluent. Cells were then passaged and seeded (8.25×10^5 cells/insert) on polycarbonate Snapwell inserts (Costar) in differentiation media containing 50% DMEM in BEGM with the same supplements as above but without triiodothyronine and a final retinoic acid concentration of 50 nM (all-trans retinoic acid). Cells were maintained submerged for the first 7 days in culture, after which time they were exposed to an apical air interface for the remainder of the culture period. At this time, media was changed to DMEM:F12 media containing 2% v/v Ultroser G for the remainder of culture. Amphotericin B was removed from all media 3 feeds prior to use in the Ussing Chambers. Cells were used between days 7 and 21 after establishment of the apical-air interface. At all stages of culture, cells were maintained at 37° C. in 5% CO2 in an air incubator.
Snapwell inserts were mounted in Vertical Diffusion Chambers (Costar) and were bathed with continuously gassed Ringer solution (5% CO2 in O2; pH 7.4) maintained at 37° C. containing (in mM): 120 NaCl, 25 NaHCO3, 3.3 KH2PO4, 0.8 K2HPO4, 1.2 CaCl2, 1.2 MgCl2, and 10 glucose. The solution osmolarity was between 280 and 300 mOsmol/kg H2O for all physiological salt solutions used. Cells were voltage clamped to 0 mV (model EVC4000; WPI). RT was measured by applying a 1- or 2-mV pulse at 30-s intervals and calculating RT by Ohm's law. Data were recorded using a PowerLab workstation (ADInstruments).
Test compounds were prepared as a 10 mM stock solution in DMSO (95%). Serial 3-fold dilutions were freshly prepared in an appropriate vehicle (distilled H2O or Ringers solution). The initial concentration was added to the apical chamber as a 1000× concentrate in 5 μL, resulting in a final 1× concentration the 5 mL volume of the Ussing chamber. Subsequent additions of compound were added in a 3.3 μL volume of the 1000× serially diluted stock solution. At the completion of the concentration-response experiment, amiloride (10 μM) was added into the apical chamber to enable the total amiloride-sensitive current to be measured. An amiloride control IC50 was established at the start of each experiment.
Results are expressed as the mean % inhibition of the amiloride-sensitive ISC. Concentration-response curves were plotted and IC50 values generated using GraphPad Prism 3.02. Cell inserts were typically run in duplicate and the IC50 calculated on the mean % inhibition data.

Structure (SMILES) | IC50
CCC[C@H](CNC(=O)c1nc(Cl)c(N)nc1N)[N+](C)(C)C [Example 1, ((R)-1-{[(3,5-Diamino-6-chloro-pyrazine-2-carbonyl)-amino]-methyl}-butyl)-trimethyl-ammonium iodide] | 250 nM
CCC[C@@H](CNC(=O)c1nc(Cl)c(N)nc1N)[N+](C)(C)C [Example 5, ((S)-1-{[(3,5-Diamino-6-chloro-pyrazine-2-carbonyl)-amino]-methyl}-butyl)-trimethyl-ammonium trifluoroacetate] | 20 nM
C[N+](C)(C)C1(CNC(=O)c2nc(Cl)c(N)nc2N)CCCC1 [Example 9, (1-{[(3,5-Diamino-6-chloro-pyrazine-2-carbonyl)-amino]-methyl}-cyclopentyl)-trimethyl-ammonium iodide] | 3460 nM
C[N+]1(C)CCC[C@@H]1CNC(=O)c1nc(Cl)c(N)nc1N [Example 11, (R)-2-{[(3,5-Diamino-6-chloro-pyrazine-2-carbonyl)-amino]-methyl}-1,1-dimethyl-pyrrolidinium iodide] | 5320 nM
C[N+](C)(C)[C@H](CNC(=O)c1nc(Cl)c(N)nc1N)Cc1ccccc1 [Example 13, {(S)-1-Benzyl-2-[(3,5-diamino-6-chloro-pyrazine-2-carbonyl)-amino]-ethyl}-trimethyl-ammonium iodide] | 170 nM
C[N+](C)(C)[C@@H](CCCCNC(=O)CCc1ccc(OCc2ccccc2)cc1)CNC(=O)c1nc(Cl)c(N)nc1N [Example 14, ((S)-5-[3-(4-Benzyloxy-phenyl)-propionylamino]-1-{[(3,5-diamino-6-chloro-pyrazine-2-carbonyl)-amino]-methyl}-pentyl)-trimethyl-ammonium iodide] | 46 nM
C[N+](C)(C)[C@@H](CCCCNC(=O)Cc1ccc(OCc2ccccc2)cc1)CNC(=O)c1nc(Cl)c(N)nc1N [Example 15, ((S)-5-[2-(4-Benzyloxy-phenyl)-acetylamino]-1-{[(3,5-diamino-6-chloro-pyrazine-2-carbonyl)-amino]-methyl}-pentyl)-trimethyl-ammonium iodide] | 52 nM
C[N+]1(CCNC(=O)c2nc(Cl)c(N)nc2N)CCC(Cc2ccccc2)CC1 (stereo not drawn) [Example 16, 4-Benzyl-1-{2-[(3,5-diamino-6-chloro-pyrazine-2-carbonyl)-amino]-ethyl}-1-methyl-piperidinium iodide] | 640 nM
C=CC[N+](CCCc1ccc(OC)cc1)(CCCc1ccc(OC)cc1)CCNC(=O)c1nc(Cl)c(N)nc1N [Example 17, Allyl-{2-[(3,5-diamino-6-chloro-pyrazine-2-carbonyl)-amino]-ethyl}-bis-[3-(4-methoxy-phenyl)-propyl]-ammonium trifluoroacetate] | 7.5 nM
COc1ccc(CCC[N+](CCCc2ccc(OC)cc2)(CCCc2ccc(OC)cc2)CCNC(=O)c2nc(Cl)c(N)nc2N)cc1 [Example 18, {2-[(3,5-Diamino-6-chloro-pyrazine-2-carbonyl)-amino]-ethyl}-tris-[3-(4-methoxy-phenyl)-propyl]-ammonium trifluoroacetate] | 37 nM
CCN(CC)CC[N+](CCCc1ccc(OC)cc1)(CCCc1ccc(OC)cc1)CCNC(=O)c1nc(Cl)c(N)nc1N [Example 19, {2-[(3,5-Diamino-6-chloro-pyrazine-2-carbonyl)-amino]-ethyl}-(2-diethylamino-ethyl)-bis-[3-(4-methoxy-phenyl)-propyl]-ammonium trifluoroacetate] | 20 nM
COc1ccc(CCC[N+](C)(CCCc2ccc(OC)cc2)CCNC(=O)c2nc(Cl)c(N)nc2N)cc1 [Example 20, {2-[(3,5-diamino-6-chloro-pyrazine-2-carbonyl)-amino]-ethyl}-bis-[3-(4-methoxy-phenyl)-propyl]-methyl-ammonium trifluoroacetate] | 2 nM
CCC[N+](CCCc1ccc(OC)cc1)(CCCc1ccc(OC)cc1)CCNC(=O)c1nc(Cl)c(N)nc1N [Example 21, {2-[(3,5-Diamino-6-chloro-pyrazine-2-carbonyl)-amino]-ethyl}-bis-[3-(4-methoxy-phenyl)-propyl]-propyl-ammonium trifluoroacetate] | 5690 nM
COc1ccc(CCC[N+](CCCc2ccc(OC)cc2)(CCNC(=O)c2nc(Cl)c(N)nc2N)CC(N)=O)cc1 [Example 22, Carbamoylmethyl-{2-[(3,5-diamino-6-chloro-pyrazine-2-carbonyl)-amino]-ethyl}-bis-[3-(4-methoxy-phenyl)-propyl]-ammonium trifluoroacetate] | 51 nM
COc1ccc(CCC[N+](CCCc2ccc(OC)cc2)(CCNC(=O)c2nc(Cl)c(N)nc2N)Cc2ccccc2)cc1 [Example 23, Benzyl-{2-[(3,5-diamino-6-chloro-pyrazine-2-carbonyl)-amino]-ethyl}-bis-[3-(4-methoxy-phenyl)-propyl]-ammonium trifluoroacetate] | 34 nM
